Reference: ChEMBL document CHEMBL4325865, “Optimization of a fragment linking hit toward Dengue and Zika virus NS5 methyltransferases inhibitors” (Eur J Med Chem, 2019)
Active and inactive are the calls of the source. The rule behind the calls is not given here.

Tests used:
Nonstructural protein 5 = Nonstructural protein 5 (Dengue virus, UniProt V5TFZ2); assay: Inhibition of DENV3 2'-O-MTase assessed as reduction in [3H]AdoMet transfer on to capped GpppAC4 RNA after 30 mins by microbeta liquid scintillation counting method; set-up: species or system dengue virus type 3
Chain of Nonstructural protein 5 (V5TFZ2 whole entry): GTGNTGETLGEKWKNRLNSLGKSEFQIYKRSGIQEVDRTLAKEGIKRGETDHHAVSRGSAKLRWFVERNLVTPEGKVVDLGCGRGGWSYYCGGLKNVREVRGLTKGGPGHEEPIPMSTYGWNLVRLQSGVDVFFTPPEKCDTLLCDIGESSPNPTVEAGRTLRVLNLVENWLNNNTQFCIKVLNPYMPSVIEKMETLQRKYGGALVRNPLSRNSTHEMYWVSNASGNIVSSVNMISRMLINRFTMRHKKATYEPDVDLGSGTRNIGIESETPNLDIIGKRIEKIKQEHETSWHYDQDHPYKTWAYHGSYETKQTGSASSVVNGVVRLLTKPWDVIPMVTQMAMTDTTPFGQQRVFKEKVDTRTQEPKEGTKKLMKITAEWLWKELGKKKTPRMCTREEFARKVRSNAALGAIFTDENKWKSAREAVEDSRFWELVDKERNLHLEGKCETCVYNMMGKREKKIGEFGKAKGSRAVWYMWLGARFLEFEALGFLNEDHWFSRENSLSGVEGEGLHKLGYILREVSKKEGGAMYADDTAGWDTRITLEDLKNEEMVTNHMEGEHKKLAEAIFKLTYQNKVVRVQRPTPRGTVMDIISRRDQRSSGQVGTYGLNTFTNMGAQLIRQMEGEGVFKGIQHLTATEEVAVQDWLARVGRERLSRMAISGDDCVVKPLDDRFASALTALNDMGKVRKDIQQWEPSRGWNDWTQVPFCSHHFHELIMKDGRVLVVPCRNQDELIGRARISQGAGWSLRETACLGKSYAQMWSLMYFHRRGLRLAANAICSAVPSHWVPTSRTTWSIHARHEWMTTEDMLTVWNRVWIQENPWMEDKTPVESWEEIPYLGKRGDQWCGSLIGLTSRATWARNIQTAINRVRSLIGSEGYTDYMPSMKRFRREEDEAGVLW

Genome polyprotein [1] = molecular target: Genome polyprotein (Zika virus, UniProt Q32ZE1); assay: Inhibition of ZIKV 2'-O-MTase assessed as reduction in [3H]AdoMet transfer on to capped GpppAC4 RNA after 30 mins by microbeta liquid scintillation counting method
Chain of Genome polyprotein (Zika virus, UniProt Q32ZE1) (Q32ZE1 2517-3419 limits assumed): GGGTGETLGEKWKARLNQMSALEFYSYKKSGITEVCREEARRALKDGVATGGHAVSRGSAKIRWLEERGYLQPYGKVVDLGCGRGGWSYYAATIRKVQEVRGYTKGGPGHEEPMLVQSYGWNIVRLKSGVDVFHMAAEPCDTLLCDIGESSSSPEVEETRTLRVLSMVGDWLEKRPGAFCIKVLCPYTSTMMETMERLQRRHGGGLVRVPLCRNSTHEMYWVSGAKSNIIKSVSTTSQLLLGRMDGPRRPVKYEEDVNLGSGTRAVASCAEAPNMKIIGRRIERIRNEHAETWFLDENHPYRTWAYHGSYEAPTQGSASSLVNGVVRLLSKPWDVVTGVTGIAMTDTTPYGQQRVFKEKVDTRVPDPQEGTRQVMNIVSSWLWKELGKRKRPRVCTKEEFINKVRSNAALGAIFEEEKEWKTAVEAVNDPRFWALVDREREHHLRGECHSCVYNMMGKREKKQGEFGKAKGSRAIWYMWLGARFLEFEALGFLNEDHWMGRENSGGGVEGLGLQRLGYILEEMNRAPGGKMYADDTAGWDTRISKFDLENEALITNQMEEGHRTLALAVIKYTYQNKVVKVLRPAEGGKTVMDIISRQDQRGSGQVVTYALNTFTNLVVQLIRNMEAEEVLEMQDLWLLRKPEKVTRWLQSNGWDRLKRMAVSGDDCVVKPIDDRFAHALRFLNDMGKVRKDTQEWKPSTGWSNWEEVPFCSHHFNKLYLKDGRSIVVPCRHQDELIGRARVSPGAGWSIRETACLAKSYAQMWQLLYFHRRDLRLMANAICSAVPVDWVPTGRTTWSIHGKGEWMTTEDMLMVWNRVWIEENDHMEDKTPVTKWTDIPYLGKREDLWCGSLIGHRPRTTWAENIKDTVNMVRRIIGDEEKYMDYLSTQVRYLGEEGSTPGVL

Genome polyprotein [2] = molecular target: Genome polyprotein (West Nile virus, UniProt P06935); assay: Inhibition of WNV 2'-O-MTase assessed as reduction in [3H]AdoMet transfer on to capped GpppAC4 RNA after 30 mins by microbeta liquid scintillation counting method
Chain of Genome polyprotein (West Nile virus, UniProt P06935) (P06935 2526-3430 limits assumed): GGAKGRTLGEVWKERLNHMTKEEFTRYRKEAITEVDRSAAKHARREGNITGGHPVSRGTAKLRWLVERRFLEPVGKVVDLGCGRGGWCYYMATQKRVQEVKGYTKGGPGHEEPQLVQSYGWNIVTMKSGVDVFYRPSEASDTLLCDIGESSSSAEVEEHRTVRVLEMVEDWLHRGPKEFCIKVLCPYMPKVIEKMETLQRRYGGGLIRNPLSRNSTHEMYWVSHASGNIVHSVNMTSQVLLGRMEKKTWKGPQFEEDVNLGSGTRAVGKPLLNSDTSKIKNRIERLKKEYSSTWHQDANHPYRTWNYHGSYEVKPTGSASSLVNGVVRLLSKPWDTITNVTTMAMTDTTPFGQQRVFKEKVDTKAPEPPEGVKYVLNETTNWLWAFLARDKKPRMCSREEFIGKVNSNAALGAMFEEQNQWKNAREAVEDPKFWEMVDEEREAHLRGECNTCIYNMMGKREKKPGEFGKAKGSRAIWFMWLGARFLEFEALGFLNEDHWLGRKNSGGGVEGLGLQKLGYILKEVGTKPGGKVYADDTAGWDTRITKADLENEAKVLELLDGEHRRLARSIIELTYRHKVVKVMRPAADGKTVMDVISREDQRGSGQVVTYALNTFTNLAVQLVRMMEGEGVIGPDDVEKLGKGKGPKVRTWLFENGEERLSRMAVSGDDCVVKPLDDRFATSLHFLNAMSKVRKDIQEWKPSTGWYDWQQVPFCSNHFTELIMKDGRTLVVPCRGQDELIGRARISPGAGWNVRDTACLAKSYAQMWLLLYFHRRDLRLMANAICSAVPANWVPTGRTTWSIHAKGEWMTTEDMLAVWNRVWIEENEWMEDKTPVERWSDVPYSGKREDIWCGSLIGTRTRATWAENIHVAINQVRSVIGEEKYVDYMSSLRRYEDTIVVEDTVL

dengue virus type 2 = assay: Antiviral activity against DENV2 CNR 25679 infected in African green monkey Vero E6 cells assessed as reduction in viral replication up to 20 uM by RT-PCR analysis; type: functional, organism-based; conditions: Vero C1008
Vero C1008 = assay: Cytotoxicity against African green monkey Vero E6 cells up to 100 uM; type: cell-based; conditions: chlorocebus sabaeus
Zika virus = assay: Antiviral activity against ZIKV H/PF/2013 infected in African green monkey Vero E6 cells assessed as reduction in viral replication up to 20 uM by RT-PCR analysis; type: functional, organism-based; conditions: Vero C1008
[3] = Cytotoxicity against African green monkey Vero E6 cells; type: cell-based; conditions: chlorocebus sabaeus, Vero E6 cells (Vero C1008)

IC50 (Nonstructural protein 5) [µM]	IC50 (Genome polyprotein [1]) [µM]	IC50 (Genome polyprotein [2]) [µM]	Structure (SMILES)	Activity (dengue virus type 2)	Activity (Vero C1008)	Activity (Zika virus)	CC50 [3] [µM]
144	135	–	Nc1cc(C(F)(F)F)ccc1NC(=O)Nc1cccc(S(=O)(=O)Nc2ccc(CC(=O)O)cc2)c1	–	–	–	–
400	400	–	CN1CCC(CNS(=O)(=O)c2ccc(NC(=O)Nc3ccc(C(F)(F)F)cc3N)cc2)C1 (stereo not drawn)	–	–	–	–
400	400	–	CN1CCC(CNS(=O)(=O)c2ccc(NC(=O)Nc3ccc(C(F)(F)F)cc3[N+](=O)[O-])cc2)C1 (stereo not drawn)	–	–	–	–
452	221	51 to 299	Nc1cc(Cl)ccc1NC(=O)Nc1cccc(S(=O)(=O)Nc2ccc(C(=O)O)cc2)c1	–	–	–	–
435	87	51 to 299	Nc1cc(Cl)ccc1NC(=O)Nc1ccc(S(=O)(=O)Nc2ccc(C(=O)O)cc2)cc1	–	–	–	–
91	24	51 to 299	Nc1cc(C(F)(F)F)ccc1NC(=O)Nc1cccc(S(=O)(=O)Nc2ccc(C(=O)O)cc2)c1	–	–	–	–
24	19	–	Nc1cc(C(F)(F)F)ccc1NC(=O)Nc1ccc(S(=O)(=O)Oc2cccc(CC(=O)Oc3cccc(CC(=O)O)c3)c2)cc1	inactive	Non-Toxic	inactive	–
342	132	–	Nc1cc(C(F)(F)F)ccc1NC(=O)Nc1cccc(S(=O)(=O)NCCCC(=O)O)c1	–	–	–	–
276	111	–	Nc1cc(C(F)(F)F)ccc1NC(=O)Nc1ccc(S(=O)(=O)Oc2cccc(CC(=O)O)c2)cc1	–	–	–	–
400	400	–	COC(=O)CCCNS(=O)(=O)c1cccc(NC(=O)Nc2ccc(C(F)(F)F)cc2[N+](=O)[O-])c1	–	–	–	–
174	61	–	Nc1cc(C(F)(F)F)ccc1NC(=O)Nc1ccc(S(=O)(=O)NCc2cccc(C(=O)O)c2)cc1	inactive	Non-Toxic	inactive	–
400	136	–	O=C(Nc1cccc(S(=O)(=O)NCc2cccc(C(=O)O)c2)c1)Nc1ccc(C(F)(F)F)cc1[N+](=O)[O-]	–	–	–	–
26	28	–	O=C(O)Cc1cccc(OS(=O)(=O)c2ccc(NC(=O)Nc3ccc(C(F)(F)F)cc3[N+](=O)[O-])cc2)c1	inactive	–	inactive	37.5
181	185	–	O=C(O)Cc1ccc(NS(=O)(=O)c2cccc(NC(=O)Nc3ccc(C(F)(F)F)cc3[N+](=O)[O-])c2)cc1	–	–	–	–
145	83	–	O=C(Nc1ccc(S(=O)(=O)NCc2cccc(C(=O)O)c2)cc1)Nc1ccc(C(F)(F)F)cc1[N+](=O)[O-]	inactive	–	inactive	70
366	122	–	Nc1cc(C(F)(F)F)ccc1NC(=O)Nc1cccc(S(=O)(=O)NCc2ccc(C(=O)O)cc2)c1	–	–	–	–
304	95	–	Nc1cc(C(F)(F)F)ccc1NC(=O)Nc1cccc(S(=O)(=O)NCc2cccc(C(=O)O)c2)c1	–	–	–	–
369	33	51 to 299	Nc1cc(Cl)ccc1NC(=O)Nc1cccc(S(=O)(=O)Oc2ccc(C(=O)O)cc2)c1	–	–	–	–
368	31	51 to 299	Nc1cc(Cl)ccc1NC(=O)Nc1ccc(S(=O)(=O)Oc2ccc(C(=O)O)cc2)cc1	–	–	–	–
110	67	51 to 299	Nc1cc(C(F)(F)F)ccc1NC(=O)Nc1ccc(S(=O)(=O)Nc2ccc(C(=O)O)cc2)cc1	–	–	–	–
